Counter-ions that a name gives are not always drawn.
Columns and labels:
[1] = system: patients with moderate to severe underlying renal dysfunction; test: Targeted renal therapy (intra-renal infusion) with fenoldopam mesylate in patients receiving a nephrotoxic radio-contrast agent; assay type: in vivo, human; details: TRT (intra-renal) delivery
Excerpt: TRT can be applied to patients with various agents in many clinical settings to mitigate acute kidney injury. For example, TRT can be applied with fenoldopam mesylate, a dopamine DI-like agonist vasodilator (CORLOPAM® brand of Fenoldopam Mesylate Injection). […] The increase in GFR can be seen in the setting of an insult to the kidneys in the form of a nephrotoxic radio-contrast agent.

[2] = system: septic patients; details: IV infusion 0.09 mcg/kg/min, average of one week or more, ICU; cited from earlier work

Oc1ccc(C2CNCCc3c2cc(O)c(O)c3Cl)cc1 (stereo not drawn) [fenoldopam mesylate]
effect on blood pressure [1]: no significant effect
increase in glomerular filtration rate (GFR) above baseline ([1]; nephrotoxic radio-contrast insult): approximately 25%
outcome in preventing kidney failure [2]: improved outcomes in preventing kidney failure

From patent US20090306625A1, “TREATMENT SYSTEMS AND METHODS FOR RENAL-RELATED DISEASES” (AngioDynamics, Inc., priority 2007, published 2009)
